Test results reported in ChEMBL document CHEMBL3797073 (Bioorg Med Chem, 2016).

How the values were obtained:
Rattus norvegicus = assay: Anticoagulant activity in Sprague-Dawley rat assessed as inhibition of arteriovenous thrombosis at 0.5 mg/ml administered 3 days prior to testing measured on day 4 relative to control; type: functional
Prothrombin [1] = target: T1, Prothrombin (Homo sapiens, UniProt P00734); assay: Inhibition of human thrombin at 1 ug/ml preincubated for 10 mins followed by Ac-FVR-AMC substrate addition measured within 10 mins by fluorescence assay relative to control
Prothrombin [2] = target: T1, Prothrombin; assay: Inhibition of human thrombin preincubated for 10 mins followed by Ac-FVR-AMC substrate addition measured within 10 mins by fluorescence assay

Structure (SMILES)	inhibition (Prothrombin [1]) [%]	IC50 (Prothrombin [2]; read-out: IC50) [nM]	IC50 (Prothrombin [2]; read-out: pIC50 (converted)) [nM]	inhibition (INH) (Rattus norvegicus) [%]
Cn1c(CNc2ccc(C(=N)N)cc2)nc2cc(C(=O)N(CCC(=O)O)c3ccccn3)ccc21 [DABIGATRAN]				85.07
CCn1c(CNc2ccc(C(=N)N)cc2F)nc2cc(C(=O)N(CCC(=O)O)c3ccc(C)cc3C)ccc21	91.9	7.18	7.24	
CCn1c(CNc2ccc(C(=N)N)cc2F)nc2cc(C(=O)N(CCC(=O)O)c3ccc(F)c(F)c3)ccc21	93.8	9.17	9.12	
CCn1c(CNc2ccc(C(=N)N)cc2F)nc2cc(C(=O)N(CCC(=O)O)c3cc(F)cc(F)c3)ccc21	91.2			
CCn1c(CNc2ccc(C(=N)N)cc2F)nc2cc(C(=O)N(CCC(=O)O)c3ccc(F)cc3F)ccc21	92.5	3.21	3.24	76.23
CCn1c(CNc2ccc(C(=N)N)cc2F)nc2cc(C(=O)N(CCC(=O)O)c3cc(C)cc(C)c3)ccc21	89			

Continued, in another order:

inhibition (Prothrombin [1]) [%]	IC50 (Prothrombin [2]; read-out: IC50) [nM]	IC50 (Prothrombin [2]; read-out: pIC50 (converted)) [nM]	Structure (SMILES)	inhibition (INH) (Rattus norvegicus) [%]
92.5	1.81	1.82	CCn1c(CNc2ccc(C(=N)N)cc2F)nc2cc(C(=O)N(CCC(=O)O)c3c(C)cccc3C)ccc21	
92.5	4.18	4.17	CCn1c(CNc2ccc(C(=N)N)cc2F)nc2cc(C(=O)N(CCC(=O)O)c3ccc(F)c(C)c3)ccc21	
88.2			CCn1c(CNc2ccc(C(=N)N)cc2F)nc2cc(C(=O)N(CCC(=O)O)c3ccc(C)cc3)ccc21	
93	5.66	5.62	CCn1c(CNc2ccc(C(=N)N)cc2F)nc2cc(C(=O)N(CCC(=O)O)c3cc(C)ccc3C)ccc21	
93.6	2.16	2.14	CCn1c(CNc2ccc(C(=N)N)cc2F)nc2cc(C(=O)N(CCC(=O)O)c3cccc(C)n3)ccc21	84.66
87.5			CCn1c(CNc2ccc(C(=N)N)cc2F)nc2cc(C(=O)N(CCC(=O)O)c3ccc(C)c(F)c3)ccc21	
91.6	10.1		CCn1c(CNc2ccc(C(=N)N)cc2F)nc2cc(C(=O)N(CCC(=O)O)c3ccc(C)c(C)c3)ccc21	
92	3.69	3.72	CCn1c(CNc2ccc(C(=N)N)cc2F)nc2cc(C(=O)N(CCC(=O)O)c3cc(C)ccn3)ccc21	
93.2	4.92	4.9	CCn1c(CNc2ccc(C(=N)N)cc2F)nc2cc(C(=O)N(CCC(=O)O)c3cccc(C)c3C)ccc21	
92.8	5.44	5.5	CCn1c(CNc2ccc(C(=N)N)cc2F)nc2cc(C(=O)N(CCC(=O)O)c3cccc(C)c3)ccc21	
